For one data set, the system named is A549. The experiment in a line: IC50 in tumor cell lines (A549). The format is cell-based. The following applies: Table 1; lung tumor cell line A549. Here is the method: (§1) Cytotoxicity Assays. Cytotoxicity assays in the mechanism of action studies were performed according to Mosmann (1983), wherein the activity of mitochondrial reductases were measured using 3-(4,5-dimethylthiozol-3-yl)-2,5-diphenyltetrozolium bromide dye. In brief, cells were seeded in 96-well plates and incubated for various times at 37° C. Inhibition of cell growth was measured by adding 3-(4,5-dimethylthiozol-3-yl)-2,5-diphenyltetrozolium bromide dye, and after an additional 4 h of incubation at 37° C., the 96-well plates were centrifuged, and the culture supernatant was removed. DMSO was added to each well to solubilize the formazan crystals, and the optical density was read at 540 nm on a Quant Spectrophotometer (BioTek Instruments, Winooski, Vt.). Cell growth inhibition data are expressed as percentage of survival compared with untreated cells. The IC50 is defined as the drug concentration required to produce 50% growth inhibition. Results are mean S.E.M. (n 3).

The test system of data set [1] is BxPC3 DPC-4(+/+) and BxPC3 DPC-4(−/−) cells. The experiment in a line: Cytotoxicity (96-h MTT) in isogenic BxPC3 cell lines. Format: cell-based, Human. Here is the method: Cell lines and Culture Conditions. Human pancreatic cancer cell lines MiaPaCa-2 (Yunis et al., 1977), Panc-1 (Lieber et al., 1975), and BxPC3 (Tan et al., 1986) were purchased from the American Type Culture Collection (Manassas, Va.) and cultured in a humidified incubator at 37° C., 5% CO2, in RPMI 1640 medium (CellGro, Manassas, Va.) supplemented with 10% heat-inactivated bovine calf serum, 2 mM L-glutamine, 100 U/ml penicillin, and 100 µg/ml streptomycin (Invitrogen, Carlsbad, Calif.). MiaPaCa-2 (CRL-1420) is an adherent epithelial human pancreatic cancer cell line with a doubling time of approximately 40 h (Yunis et al., 1977). Panc-1 (CRL-1469) is an undifferentiated human pancreatic epithelial cell line with a doubling time of approximately 52 h (Lieber et al., 1975). The BxPC3 cell line DPC-4(−/−) and its isogenic restored wild-type DPC-4(+/+) cell line were developed and cultured as described previously (Wang et al., 2006). In brief, a DPC-4-expressing construct (pMSCVneoDPC-4) was created by amplifying full-length cDNA of DPC-4 using reverse transcriptase-PCR and subcloning into the multiple cloning site of a retroviral vector (pMSCVneo). The DPC-4-expressing construct was cotransfected into the BxPC3 DPC-4(−/−) cells using a packaging cell line, resulting in a cell line that constitutively expresses DPC-4. The expression of DPC-4 was confirmed by Western blotting (Wang et al., 2006).
as §1
Mean±S.E.M., n=3. […] Mean±S.E.M., n=3. […] Mean tumor burden is shown.

Another data set deals with PIM-1 (Homo sapiens, UniProt P11309). As to the kind of experiment: Initial kinase screening (Amphora), PIM-1. The format is biochemical. Also noted: assay run by Amphora Discovery Corporation (Durham, N.C.). Conditions: 10 μM compound. How it is done:
(§2) Kinase Screening. Initial kinase screening was performed by Amphora Discovery Corporation (Durham, N.C.).

A further data set concerns PC3. The experiment in a line: IC50 in tumor cell lines (PC3). The format is cell-based. The following applies: Table 1; prostate tumor cell line PC3. Here is the method:
as §1

For the next data set, the system named is DU145. The experiment in a line: IC50 in tumor cell lines (DU145). The format is cell-based. The following applies: Table 1; prostate tumor cell line DU145. How it is done:
as §1

The next data set relates to H460. As to the kind of experiment: IC50 in tumor cell lines (H460). The format is cell-based. The following applies: Table 1; lung tumor cell line H460. Here is the method:
as §1

Another data set deals with TrkB (Homo sapiens, UniProt Q16620). As to the kind of experiment: Initial kinase screening (Amphora), TrkB. The format is biochemical. Set-up: assay run by Amphora Discovery Corporation (Durham, N.C.). The following applies: 10 μM compound. Here is the method:
as §2

For a further data set, the target named is T1, CDK2/cyclin A (Homo sapiens, UniProt P24941).
T1 construct: assay run by Amphora Discovery Corporation (Durham, N.C.)
The experiment in a line: Initial kinase screening (Amphora), CDK2/cyclin A. The format is biochemical. The following applies: 10 μM compound. Here is the method: as §2

A further data set has as its system 48 protein kinases. The experiment in a line: Initial kinase screening (Amphora), panel of 48 protein kinases. Format: biochemical. The following applies: 10 μM compound. Here is the method: as §2
A short description of another data set: Solubility (statement). Format: physicochemical.
For a further data set, the target named is T2, PDGFRα (Homo sapiens, UniProt P16234).
T2 construct: assay run by Amphora Discovery Corporation (Durham, N.C.)
As to the kind of experiment: Initial kinase screening (Amphora), PDGFRα. The format is biochemical. The following applies: 10 μM compound. Here is the method: as §2

In a further data set the target is T3, PDGFRβ (Homo sapiens, UniProt P09619).
T3 construct: assay run by Amphora Discovery Corporation (Durham, N.C.)
As to the kind of experiment: Initial kinase screening (Amphora), PDGFRβ. Format: biochemical. Conditions: 10 μM compound. How it is done:
as §2

“And” between values parts separate entries of the source, which are not always exact repeats. Equal entries are not always repeated.

T3 sequence (P09619 33-1106, species assumed): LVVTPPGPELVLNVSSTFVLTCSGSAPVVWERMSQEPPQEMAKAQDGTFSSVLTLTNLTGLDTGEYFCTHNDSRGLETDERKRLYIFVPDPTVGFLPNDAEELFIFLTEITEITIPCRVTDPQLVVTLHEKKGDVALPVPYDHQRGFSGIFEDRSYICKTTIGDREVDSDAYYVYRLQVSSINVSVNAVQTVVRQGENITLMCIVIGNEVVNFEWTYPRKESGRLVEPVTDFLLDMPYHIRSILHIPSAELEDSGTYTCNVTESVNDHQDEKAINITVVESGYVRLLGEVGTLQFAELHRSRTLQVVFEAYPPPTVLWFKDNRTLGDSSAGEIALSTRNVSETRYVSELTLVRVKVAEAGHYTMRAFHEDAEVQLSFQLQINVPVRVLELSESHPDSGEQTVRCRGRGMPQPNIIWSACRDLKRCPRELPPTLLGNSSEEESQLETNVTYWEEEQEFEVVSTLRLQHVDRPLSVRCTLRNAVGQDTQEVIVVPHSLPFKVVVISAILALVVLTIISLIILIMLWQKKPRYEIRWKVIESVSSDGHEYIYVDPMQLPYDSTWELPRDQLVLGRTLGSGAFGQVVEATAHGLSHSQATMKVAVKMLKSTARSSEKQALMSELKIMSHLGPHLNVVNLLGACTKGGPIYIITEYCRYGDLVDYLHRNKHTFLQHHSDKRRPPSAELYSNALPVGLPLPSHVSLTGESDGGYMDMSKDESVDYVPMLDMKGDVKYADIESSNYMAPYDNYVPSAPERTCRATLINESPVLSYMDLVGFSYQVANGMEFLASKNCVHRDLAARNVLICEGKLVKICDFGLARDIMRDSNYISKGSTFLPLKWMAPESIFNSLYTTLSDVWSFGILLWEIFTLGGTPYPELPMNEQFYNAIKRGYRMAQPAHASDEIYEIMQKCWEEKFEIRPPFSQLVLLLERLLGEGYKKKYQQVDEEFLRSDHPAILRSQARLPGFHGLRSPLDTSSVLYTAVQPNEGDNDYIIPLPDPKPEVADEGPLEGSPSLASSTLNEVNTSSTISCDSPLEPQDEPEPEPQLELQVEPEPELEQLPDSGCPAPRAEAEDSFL
Chain of PIM-1 (P11309 whole entry): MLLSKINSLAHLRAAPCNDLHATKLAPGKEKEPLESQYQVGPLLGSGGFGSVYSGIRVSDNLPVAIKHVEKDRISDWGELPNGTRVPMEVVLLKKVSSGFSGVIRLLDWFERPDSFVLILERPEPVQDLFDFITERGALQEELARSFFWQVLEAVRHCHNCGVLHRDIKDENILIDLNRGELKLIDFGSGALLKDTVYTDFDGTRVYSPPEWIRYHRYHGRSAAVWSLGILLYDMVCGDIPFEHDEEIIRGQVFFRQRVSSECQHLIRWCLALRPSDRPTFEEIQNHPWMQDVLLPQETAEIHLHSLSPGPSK
Chain of TrkB (Q16620 32-822): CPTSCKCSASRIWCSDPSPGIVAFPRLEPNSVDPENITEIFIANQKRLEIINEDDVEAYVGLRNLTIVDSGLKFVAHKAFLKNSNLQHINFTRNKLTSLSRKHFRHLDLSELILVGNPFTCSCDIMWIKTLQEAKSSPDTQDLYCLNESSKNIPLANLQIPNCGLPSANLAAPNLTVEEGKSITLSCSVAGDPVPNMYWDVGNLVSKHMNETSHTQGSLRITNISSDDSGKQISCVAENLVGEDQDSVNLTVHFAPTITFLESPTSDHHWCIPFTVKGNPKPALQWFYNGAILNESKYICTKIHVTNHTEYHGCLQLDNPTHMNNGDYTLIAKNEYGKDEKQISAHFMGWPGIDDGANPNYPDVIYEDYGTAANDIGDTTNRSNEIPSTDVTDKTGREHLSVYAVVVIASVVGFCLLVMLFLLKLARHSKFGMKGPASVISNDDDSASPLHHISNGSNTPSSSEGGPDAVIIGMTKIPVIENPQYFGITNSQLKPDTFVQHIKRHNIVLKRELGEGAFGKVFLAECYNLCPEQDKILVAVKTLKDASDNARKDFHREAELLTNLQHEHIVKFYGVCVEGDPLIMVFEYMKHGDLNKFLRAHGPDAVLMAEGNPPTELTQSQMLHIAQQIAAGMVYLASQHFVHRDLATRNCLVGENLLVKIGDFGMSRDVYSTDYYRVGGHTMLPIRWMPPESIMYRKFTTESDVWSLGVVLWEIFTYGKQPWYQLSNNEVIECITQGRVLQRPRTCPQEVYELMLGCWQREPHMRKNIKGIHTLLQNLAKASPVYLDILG
T2 sequence (P16234 24-1089, species assumed): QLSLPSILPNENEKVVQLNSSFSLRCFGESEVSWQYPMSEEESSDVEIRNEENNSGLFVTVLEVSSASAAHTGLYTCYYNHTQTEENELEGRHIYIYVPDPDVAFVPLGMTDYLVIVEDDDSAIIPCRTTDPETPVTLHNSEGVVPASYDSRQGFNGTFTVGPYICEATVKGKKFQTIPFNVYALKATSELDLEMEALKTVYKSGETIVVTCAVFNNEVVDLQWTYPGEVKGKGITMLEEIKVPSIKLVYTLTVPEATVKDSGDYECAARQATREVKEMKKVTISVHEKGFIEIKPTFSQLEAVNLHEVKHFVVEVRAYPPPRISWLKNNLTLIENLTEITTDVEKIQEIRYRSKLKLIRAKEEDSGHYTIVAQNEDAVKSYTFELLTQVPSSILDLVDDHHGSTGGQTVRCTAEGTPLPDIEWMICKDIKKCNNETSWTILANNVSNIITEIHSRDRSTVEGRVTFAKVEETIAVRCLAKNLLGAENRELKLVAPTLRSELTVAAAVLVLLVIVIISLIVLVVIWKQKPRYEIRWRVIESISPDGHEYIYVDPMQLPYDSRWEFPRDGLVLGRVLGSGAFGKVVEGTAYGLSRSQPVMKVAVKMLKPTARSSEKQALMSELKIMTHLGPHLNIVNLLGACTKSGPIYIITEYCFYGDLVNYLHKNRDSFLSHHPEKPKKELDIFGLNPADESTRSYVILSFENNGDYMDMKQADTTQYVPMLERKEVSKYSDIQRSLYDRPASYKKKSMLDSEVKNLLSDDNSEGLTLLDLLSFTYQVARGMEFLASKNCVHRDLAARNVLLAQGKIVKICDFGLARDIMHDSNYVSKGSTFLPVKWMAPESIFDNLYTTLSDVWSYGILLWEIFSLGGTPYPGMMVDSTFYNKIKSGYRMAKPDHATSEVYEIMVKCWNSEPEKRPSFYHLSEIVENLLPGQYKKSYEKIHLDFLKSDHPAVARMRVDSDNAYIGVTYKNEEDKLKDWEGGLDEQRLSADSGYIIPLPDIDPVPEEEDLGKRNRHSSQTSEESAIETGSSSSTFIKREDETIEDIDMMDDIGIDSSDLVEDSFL

For the compound `COc1ccc(-c2cnc(-c3ccncc3-c3ccccc3)o2)cc1` [DPC043], the IC50 in the data set on A549 came to 33 nM; with PC3 it was 9.9 nM; in the data set with DU145, 20 nM; in the data set with H460 it was 50 nM. The “potency against BxPC3 cell lines (in words)” value (from here on “potency”) in [1] is “retained potency”. The “inhibition of PIM-1” value on PIM-1 is on record as approximately 50%. Besides, the “inhibition of TrkB” value at TrkB is given as approximately 50%.

Consider `COc1ccc(-c2cnc(-c3cccc4c3-c3ccccc3C4=O)o2)cc1` [UA-62784, reference compound], for which the “inhibition of CDK2/cyclin A” value against CDK2/cyclin A is reported as 57%. Further, in [1], the “potency” value is listed as “high potency”. Moreover, the selectivity index in [1] (ratio of the IC50 in BxPC3 DPC-4(+/+) to BxPC3 DPC-4(−/−) cells) was 2 and 1.9. Further, the “inhibition of any protein kinases (panel, in words)” value in the data set with 48 protein kinases is recorded as “no significant (>50%) inhibition”. Also, in “Solubility (statement)”, the “solubility (in words)” value was “lack of solubility”.

With `COc1ccc(-c2cnc(-c3ccccc3-c3ccccc3)o2)cc1` [DPC-026], in [1], the “potency” value is “retained high potency”. Further, at PDGFRα, the “inhibition of PDGFRα” value was 59%. Moreover, the “inhibition of PDGFRβ” value on PDGFRβ was 43%.

Values taken from patent US8987309B2, “Compounds, pharmaceutical compositions and methods of use of 2-aryl pyridylazoles” (The Translational Genomics Research Institute, priority 2009, dated 2015).
